ChEMBL document CHEMBL1201862, “PubChem BioAssay data set” (2004)
Activity calls are given as the source filed them.

Assays:
Large T antigen = Large T antigen (Simian virus 40, UniProt P03070); type: functional, Betapolyomavirus macacae;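 further: Confirmatory-stage PubChem screen for compounds that inhibit SV40 T antigen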
[1] = biological target: T1, RNA-binding protein pos-1 (Caenorhabditis elegans, UniProt G5EF15); experiment: inhibitors of POS-1/mex-3 RNA binding, dose response, biochemical, fluorescence polarization (AID 1964);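 further: purified POS-1 fused to maltose binding protein made in E. coli; potency of compounds blocking POS-1 binding to fluorescent RNA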
T1 sequence (G5EF15 whole entry): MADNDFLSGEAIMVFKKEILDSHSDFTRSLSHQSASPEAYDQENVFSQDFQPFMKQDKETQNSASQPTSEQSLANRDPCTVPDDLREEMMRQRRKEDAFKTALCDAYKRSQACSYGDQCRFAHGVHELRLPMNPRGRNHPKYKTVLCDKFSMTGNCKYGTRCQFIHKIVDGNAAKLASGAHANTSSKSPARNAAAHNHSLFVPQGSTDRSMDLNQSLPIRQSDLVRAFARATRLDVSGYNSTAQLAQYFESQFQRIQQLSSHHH

[2] = biological target: T2, Zinc finger protein mex-5 (Caenorhabditis elegans, UniProt Q9XUB2); experiment: MEX-5/TCR-2 RNA interaction inhibitors, dose response, biochemical, C. elegans, fluorescence polarization (AID 1960)
T2 sequence (Q9XUB2 whole entry): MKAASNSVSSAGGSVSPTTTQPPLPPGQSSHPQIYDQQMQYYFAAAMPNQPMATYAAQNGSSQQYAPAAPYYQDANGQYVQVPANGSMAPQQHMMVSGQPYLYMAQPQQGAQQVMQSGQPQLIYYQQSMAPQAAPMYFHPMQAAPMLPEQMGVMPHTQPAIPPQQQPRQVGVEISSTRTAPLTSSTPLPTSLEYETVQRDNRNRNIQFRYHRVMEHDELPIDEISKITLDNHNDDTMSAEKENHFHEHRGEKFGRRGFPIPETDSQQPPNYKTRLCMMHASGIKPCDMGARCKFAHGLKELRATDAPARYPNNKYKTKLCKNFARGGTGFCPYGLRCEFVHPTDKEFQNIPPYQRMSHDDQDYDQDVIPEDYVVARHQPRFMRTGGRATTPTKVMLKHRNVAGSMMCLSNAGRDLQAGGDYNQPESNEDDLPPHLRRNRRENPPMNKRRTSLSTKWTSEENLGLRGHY

[3] = biological target: T3, DNA repair protein RAD52 homolog (Homo sapiens, UniProt P43351); type: functional, biochemical
T3 sequence (P43351 whole entry): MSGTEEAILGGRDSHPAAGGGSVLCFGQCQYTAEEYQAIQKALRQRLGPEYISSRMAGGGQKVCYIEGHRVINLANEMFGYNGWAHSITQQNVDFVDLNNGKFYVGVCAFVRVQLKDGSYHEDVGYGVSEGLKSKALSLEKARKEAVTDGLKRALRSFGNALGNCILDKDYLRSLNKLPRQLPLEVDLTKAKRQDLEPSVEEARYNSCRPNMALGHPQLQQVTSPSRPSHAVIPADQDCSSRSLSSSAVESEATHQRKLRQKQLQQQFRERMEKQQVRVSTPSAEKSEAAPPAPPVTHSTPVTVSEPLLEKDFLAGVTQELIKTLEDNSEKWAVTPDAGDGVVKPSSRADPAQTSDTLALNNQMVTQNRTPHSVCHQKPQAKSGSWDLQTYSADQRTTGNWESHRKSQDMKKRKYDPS

Genome polyprotein = Genome polyprotein (dengue virus type 2, UniProt P29990); experiment: Dengue-2 NS5 methyltransferase inhibitors, primary screen, biochemical, confirmation dose response (AID 588689); type: functional
Leucine aminopeptidase = biological target: T4, Leucine aminopeptidase (Plasmodium falciparum 3D7, UniProt Q8IL11); experiment: P. falciparum M17LAP inhibitors, primary screen, biochemical, fluorogenic H-Leu-NHMec substrate, 1536-well (AID 1619); type: functional
T4 sequence (Q8IL11 whole entry): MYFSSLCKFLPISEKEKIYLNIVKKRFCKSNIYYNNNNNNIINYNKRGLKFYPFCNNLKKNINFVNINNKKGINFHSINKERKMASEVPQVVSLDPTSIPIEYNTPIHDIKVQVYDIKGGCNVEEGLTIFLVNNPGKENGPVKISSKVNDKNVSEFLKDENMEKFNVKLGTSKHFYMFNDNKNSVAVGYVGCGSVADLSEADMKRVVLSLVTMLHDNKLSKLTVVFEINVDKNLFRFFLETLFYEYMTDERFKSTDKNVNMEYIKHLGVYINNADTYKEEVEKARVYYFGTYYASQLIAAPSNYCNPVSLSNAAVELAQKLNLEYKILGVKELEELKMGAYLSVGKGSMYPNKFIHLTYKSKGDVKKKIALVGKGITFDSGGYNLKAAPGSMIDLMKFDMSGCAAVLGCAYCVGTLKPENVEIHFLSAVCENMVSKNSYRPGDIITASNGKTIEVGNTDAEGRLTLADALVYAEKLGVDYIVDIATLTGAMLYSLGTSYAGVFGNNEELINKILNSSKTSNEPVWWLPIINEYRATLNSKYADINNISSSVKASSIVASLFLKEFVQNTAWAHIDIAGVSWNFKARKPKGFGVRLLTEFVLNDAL

[4] = biological target: T5, Polyadenylate-binding protein 1 (Homo sapiens, UniProt P11940); experiment: PABP1 MLLE–PAM2 binding inhibitor potency, dose response, biochemical, fluorescence polarization, FITC-PAM2 peptide (AID 602259); type: functional; settings: read-out: IC50_Mean
[5] = biological target: T5, Polyadenylate-binding protein 1; experiment: PABP1 MLLE–PAM2 interaction inhibitors, dose response, miRNA deadenylation inhibitor project, biochemical, fluorescence polarization, Cy5-PAM2 peptide, secondary (AID 602260); type: functional; settings: read-out: IC50_Mean
[6] = cytotoxicity toward DRD oncogenic fibroblasts, dose response, cell-based, non-viral oncogenic, luminescence (AID 1934); type: functional; settings: Homo sapiens
BJ [7] = experiment: cells; type: functional, cell-based; settings: Homo sapiens
BJ [8] = experiment: cytotoxicity toward BJ-TERT-LT-ST fibroblasts, dose response, cell-based, RAS-independent, luminescence (AID 1935); type: functional; settings: Homo sapiens;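 further: BJ fibroblasts immortalized with TERT plus LT and ST oncogenes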
BJ [9] = experiment: cytotoxicity toward BJ-TERT fibroblasts, dose response, cell-based, RAS-independent, luminescence (AID 1933); type: functional; settings: Homo sapiens
Protein RecA = biological target: T6, Protein RecA (Mycobacterium tuberculosis, UniProt P9WHJ3); experiment: Fluorescence Cell-Free Homogeneous Dose Retest to Identify Inhibitors of RecA-Intein Splicing Activity. [Related pubchem assays (depositor defined):AID2097, AID2223, AID489010, AID492950]; type: functional
T6 sequence (P9WHJ3 whole entry): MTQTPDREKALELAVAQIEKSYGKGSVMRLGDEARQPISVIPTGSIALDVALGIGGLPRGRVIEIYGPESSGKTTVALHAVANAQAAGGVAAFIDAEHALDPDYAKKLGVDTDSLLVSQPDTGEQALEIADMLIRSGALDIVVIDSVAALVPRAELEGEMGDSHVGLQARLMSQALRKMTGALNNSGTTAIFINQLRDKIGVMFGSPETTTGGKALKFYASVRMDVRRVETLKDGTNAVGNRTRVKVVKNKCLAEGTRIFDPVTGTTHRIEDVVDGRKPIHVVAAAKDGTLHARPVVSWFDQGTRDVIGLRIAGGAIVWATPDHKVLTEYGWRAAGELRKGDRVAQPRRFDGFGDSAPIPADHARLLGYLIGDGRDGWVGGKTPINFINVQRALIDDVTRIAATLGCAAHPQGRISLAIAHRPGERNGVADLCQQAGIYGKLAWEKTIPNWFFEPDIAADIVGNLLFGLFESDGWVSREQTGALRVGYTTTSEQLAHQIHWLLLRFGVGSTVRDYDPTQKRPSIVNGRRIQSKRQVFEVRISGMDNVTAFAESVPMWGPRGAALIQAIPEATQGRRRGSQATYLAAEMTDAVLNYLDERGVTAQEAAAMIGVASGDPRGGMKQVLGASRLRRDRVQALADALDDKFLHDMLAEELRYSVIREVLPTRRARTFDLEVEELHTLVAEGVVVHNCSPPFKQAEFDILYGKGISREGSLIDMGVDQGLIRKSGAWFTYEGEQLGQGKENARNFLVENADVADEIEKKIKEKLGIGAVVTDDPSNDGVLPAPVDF

[10] = biological target: T7, Replicative DNA helicase DnaB (Mycobacterium tuberculosis, UniProt P9WMR3); experiment: DnaB intein splicing inhibitors, dose response, biochemical, cell-free fluorescence (AID 449749); type: functional
T7 sequence (P9WMR3 whole entry): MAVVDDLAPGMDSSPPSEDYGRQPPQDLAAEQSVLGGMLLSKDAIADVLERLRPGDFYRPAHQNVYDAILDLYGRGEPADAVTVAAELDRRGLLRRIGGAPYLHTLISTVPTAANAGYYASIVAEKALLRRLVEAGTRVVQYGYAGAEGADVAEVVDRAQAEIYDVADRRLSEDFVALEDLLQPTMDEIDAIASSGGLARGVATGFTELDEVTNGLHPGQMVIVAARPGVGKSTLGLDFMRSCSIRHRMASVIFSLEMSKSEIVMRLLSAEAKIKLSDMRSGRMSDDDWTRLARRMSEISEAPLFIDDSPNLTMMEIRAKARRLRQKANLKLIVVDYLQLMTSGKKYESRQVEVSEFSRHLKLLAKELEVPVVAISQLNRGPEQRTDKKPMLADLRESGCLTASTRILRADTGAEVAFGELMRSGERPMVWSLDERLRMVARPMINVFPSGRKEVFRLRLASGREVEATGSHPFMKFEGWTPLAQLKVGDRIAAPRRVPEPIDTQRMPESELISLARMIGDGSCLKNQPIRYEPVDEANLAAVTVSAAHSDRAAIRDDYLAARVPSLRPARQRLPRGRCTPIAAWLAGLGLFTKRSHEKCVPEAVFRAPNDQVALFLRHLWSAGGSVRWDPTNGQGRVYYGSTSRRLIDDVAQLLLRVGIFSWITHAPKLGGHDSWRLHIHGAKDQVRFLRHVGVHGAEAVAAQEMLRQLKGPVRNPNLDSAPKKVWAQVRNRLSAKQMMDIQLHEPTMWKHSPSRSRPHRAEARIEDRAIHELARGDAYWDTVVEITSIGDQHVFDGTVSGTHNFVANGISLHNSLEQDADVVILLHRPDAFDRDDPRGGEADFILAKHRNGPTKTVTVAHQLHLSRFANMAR

[11] = biological target: T8, Carboxy-terminal domain RNA polymerase II polypeptide A small phosphatase 1 (Homo sapiens, UniProt Q9GZU7); experiment: inhibitors of CTDSP1, concentration-response testing, biochemical assay, absorbance-based, actives from ultra-high-throughput screening (AID 540297); type: functional
T8 sequence (Q9GZU7 whole entry): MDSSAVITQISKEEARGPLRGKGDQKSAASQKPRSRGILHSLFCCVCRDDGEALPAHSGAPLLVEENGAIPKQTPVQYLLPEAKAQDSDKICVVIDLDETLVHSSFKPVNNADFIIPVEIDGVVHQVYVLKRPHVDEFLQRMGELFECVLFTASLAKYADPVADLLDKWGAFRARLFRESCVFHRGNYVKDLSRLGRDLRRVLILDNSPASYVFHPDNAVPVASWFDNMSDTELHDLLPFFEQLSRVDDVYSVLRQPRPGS

cells = type: functional
[12] = biological target: T9, Ubiquitin-conjugating enzyme E2 N (Homo sapiens, UniProt P61088); type: functional;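 further: Dose-response confirmation in a TR-FRET assay detecting UBC13-driven polyubiquitin chain formation, inhibition measured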
T9 sequence (P61088 whole entry): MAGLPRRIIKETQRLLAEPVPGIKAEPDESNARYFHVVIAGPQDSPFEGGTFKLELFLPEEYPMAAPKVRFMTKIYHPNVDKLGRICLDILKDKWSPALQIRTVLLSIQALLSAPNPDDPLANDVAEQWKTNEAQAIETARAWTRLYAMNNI

[13] = biological target: Induced myeloid leukemia cell differentiation protein Mcl-1 (Homo sapiens, UniProt Q07820); type: functional
Induced myeloid leukemia cell differentiation protein Mcl-1, sequence (Q07820 whole entry): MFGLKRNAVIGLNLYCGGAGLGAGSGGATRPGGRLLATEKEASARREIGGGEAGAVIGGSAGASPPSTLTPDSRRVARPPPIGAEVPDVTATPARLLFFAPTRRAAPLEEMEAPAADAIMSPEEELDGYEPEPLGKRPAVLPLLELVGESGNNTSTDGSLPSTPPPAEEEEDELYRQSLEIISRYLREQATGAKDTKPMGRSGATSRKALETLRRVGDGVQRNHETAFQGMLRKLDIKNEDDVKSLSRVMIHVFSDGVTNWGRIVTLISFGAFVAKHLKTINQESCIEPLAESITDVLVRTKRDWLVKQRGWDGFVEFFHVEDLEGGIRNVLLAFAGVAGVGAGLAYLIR

Large T antigen, sequence (P03070 whole entry, the tested form may be a part): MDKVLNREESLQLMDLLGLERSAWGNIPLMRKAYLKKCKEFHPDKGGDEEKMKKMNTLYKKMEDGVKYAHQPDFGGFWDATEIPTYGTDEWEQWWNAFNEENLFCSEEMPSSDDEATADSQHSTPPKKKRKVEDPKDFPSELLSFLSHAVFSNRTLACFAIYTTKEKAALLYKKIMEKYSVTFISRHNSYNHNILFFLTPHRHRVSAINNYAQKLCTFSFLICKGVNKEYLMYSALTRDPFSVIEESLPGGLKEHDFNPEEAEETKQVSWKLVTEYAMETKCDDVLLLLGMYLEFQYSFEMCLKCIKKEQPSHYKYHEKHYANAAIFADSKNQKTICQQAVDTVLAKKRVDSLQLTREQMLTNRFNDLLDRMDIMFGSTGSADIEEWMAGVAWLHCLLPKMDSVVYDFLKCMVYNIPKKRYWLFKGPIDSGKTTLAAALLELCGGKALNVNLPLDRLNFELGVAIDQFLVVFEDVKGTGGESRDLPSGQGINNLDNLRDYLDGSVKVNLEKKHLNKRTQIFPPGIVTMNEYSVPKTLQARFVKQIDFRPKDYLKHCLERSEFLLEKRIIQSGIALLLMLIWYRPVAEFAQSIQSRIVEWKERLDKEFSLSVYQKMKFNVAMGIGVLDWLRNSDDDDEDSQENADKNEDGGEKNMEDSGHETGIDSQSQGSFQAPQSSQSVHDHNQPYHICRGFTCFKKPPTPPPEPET
Genome polyprotein, sequence (P29990 2492-3391 limits assumed): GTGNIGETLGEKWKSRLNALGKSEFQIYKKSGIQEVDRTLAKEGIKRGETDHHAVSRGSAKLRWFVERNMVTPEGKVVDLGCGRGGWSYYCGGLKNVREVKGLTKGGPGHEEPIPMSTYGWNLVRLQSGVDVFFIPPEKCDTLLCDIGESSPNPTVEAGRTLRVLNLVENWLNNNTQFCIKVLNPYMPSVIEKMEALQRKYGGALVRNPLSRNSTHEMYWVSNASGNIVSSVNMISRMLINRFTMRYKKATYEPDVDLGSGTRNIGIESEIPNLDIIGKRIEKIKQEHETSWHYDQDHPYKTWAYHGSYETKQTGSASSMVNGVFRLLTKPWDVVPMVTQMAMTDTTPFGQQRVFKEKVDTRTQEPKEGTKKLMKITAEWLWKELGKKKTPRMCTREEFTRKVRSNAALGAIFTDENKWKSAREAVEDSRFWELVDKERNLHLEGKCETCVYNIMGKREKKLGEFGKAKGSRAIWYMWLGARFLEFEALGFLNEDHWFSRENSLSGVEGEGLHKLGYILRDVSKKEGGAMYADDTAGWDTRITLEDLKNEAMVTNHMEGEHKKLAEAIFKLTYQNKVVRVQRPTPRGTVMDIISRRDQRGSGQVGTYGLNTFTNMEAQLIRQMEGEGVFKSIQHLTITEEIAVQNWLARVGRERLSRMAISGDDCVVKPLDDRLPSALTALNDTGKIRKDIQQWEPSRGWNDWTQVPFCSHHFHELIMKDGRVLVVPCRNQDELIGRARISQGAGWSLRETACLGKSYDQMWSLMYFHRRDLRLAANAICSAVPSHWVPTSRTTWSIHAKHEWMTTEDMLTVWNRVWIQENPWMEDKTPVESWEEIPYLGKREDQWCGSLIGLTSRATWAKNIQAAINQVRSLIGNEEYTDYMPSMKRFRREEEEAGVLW
T5 sequence (P11940 whole entry): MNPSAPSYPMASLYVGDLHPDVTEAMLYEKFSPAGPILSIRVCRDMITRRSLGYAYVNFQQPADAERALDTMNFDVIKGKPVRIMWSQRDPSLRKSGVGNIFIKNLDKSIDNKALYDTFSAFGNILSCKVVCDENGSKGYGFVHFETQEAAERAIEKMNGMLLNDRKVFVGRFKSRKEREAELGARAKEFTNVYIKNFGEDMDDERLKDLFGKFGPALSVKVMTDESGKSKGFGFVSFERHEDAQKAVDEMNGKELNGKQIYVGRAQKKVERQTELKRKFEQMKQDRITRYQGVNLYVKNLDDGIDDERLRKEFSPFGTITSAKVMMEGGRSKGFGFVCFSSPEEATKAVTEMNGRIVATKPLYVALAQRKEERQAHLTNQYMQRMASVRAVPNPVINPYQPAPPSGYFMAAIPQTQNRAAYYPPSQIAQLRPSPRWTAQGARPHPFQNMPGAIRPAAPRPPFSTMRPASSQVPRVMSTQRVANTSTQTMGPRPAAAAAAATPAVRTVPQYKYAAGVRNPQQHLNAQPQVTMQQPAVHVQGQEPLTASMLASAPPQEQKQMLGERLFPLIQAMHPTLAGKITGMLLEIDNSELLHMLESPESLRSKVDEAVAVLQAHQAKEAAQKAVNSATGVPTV

Nc1ccc2[nH]c(CCCO)nc2c1
IC50 (Large T antigen): 21.2 µM (active)
EC50 [1]: 36.7 µM (active)
EC50 [2]: 4.35 µM (inconclusive)
AC50 [3]: 8.48 µM (active)

COc1ccc(N2C(=O)NC(=O)/C(=C\c3ccccc3[N+](=O)[O-])C2=O)cc1
IC50 (Genome polyprotein): 32 µM (active)

CN(C)c1ccc(C=C2C(=O)NC(=S)NC2=O)cc1[N+](=O)[O-]
IC50 (Large T antigen): 73.7 µM (active)
IC50 (Leucine aminopeptidase): 76.6 µM (active)
IC50 (Genome polyprotein): 12.8 µM (active)
IC50 [4]: > 66 µM (inactive)
IC50 [5]: > 66 µM (inactive)

CCOc1ccccc1CNS(=O)(=O)c1ccc(-c2cnc(C3CC3)o2)cc1
EC50 [6]: 19.7 µM (inconclusive)
EC50 (BJ [7]): 46.3 µM (active)
EC50 (BJ [8]): 0.703 µM (inconclusive)
EC50 (BJ [9]): 0.535 µM (inconclusive)

CCc1ccc(N2C(=O)C(Cl)=C(N3CCOCC3)C2=O)cc1
EC50 (Protein RecA): 0.34 µM (active)
IC50 (Genome polyprotein): 45.1 µM (active)
AC50 [10]: 6.99 µM (active)

COc1ccccc1NC(=O)CSc1sc2c(O)cc(=O)[nH]c2c1C#N
IC50 [11]: 6.42 µM (active)

CCC(=O)N1CCN(c2cc3c(cc2F)c(=O)c(C(=O)O)cn3CC)CC1
IC50 (cells): 6.76 µM (active)

COc1cc(/C=C2\C(=N)N3N=C(S(C)(=O)=O)SC3=NC2=O)ccc1OS(=O)(=O)c1ccc(C)cc1
IC50 (Large T antigen): 64.6 µM (active)
IC50 [11]: 3.81 µM (active)

O=C(Cn1c(=O)oc2cc(S(=O)(=O)N3CCCCCC3)ccc21)NC1CCCCCCC1
IC50 [11]: 9.64 µM (active)

COc1cc(C(=O)Nc2ccc3ccccc3c2)cc(OC)c1OC
EC50 [6]: 1.33 µM (active)
EC50 (BJ [7]): > 150 µM (not active)
EC50 (BJ [8]): 1.44 µM (active)
EC50 (BJ [9]): 3.2 µM (active)

Cc1ccc(-c2[nH]nc3c2C(c2cccnc2)C(C#N)=C(N)O3)cc1 (stereo not given)
IC50 (Leucine aminopeptidase): 25.8 µM (active)
EC50 (Protein RecA): 1.3 µM (active)
AC50 [10]: 5.17 µM (active)

CCC(C)[C@H](N)c1cn([C@@H](Cc2cc3ccccc3[nH]2)C(=O)N2CCNCC2)nn1 (stereo not given in full)
IC50 [12]: > 20 µM (inactive)
AC50 [3]: 8.23 µM (active)

CC1(C)OC(c2ccccc2)=C/C(=C\C=N\NC(=O)c2ccncc2)O1
IC50 (cells): 1.06 µM (active)

CCOc1ccc(/C=N/OCC(=O)Nc2ccc3c(c2)OCO3)cc1
IC50 (cells): 18.1 µM (active)

CC[C@H](C)NC(=O)c1ccc(Cn2c(=S)[nH]c3c([nH]c4ccc(OC)cc43)c2=O)cc1
IC50 [11]: 4.67 µM (active)
IC50 [13]: 5.25 µM (active)
